# In ChEMBL document CHEMBL1132527, “Synthesis, structural characterization and antitumor activity evaluations of copper complex with tetraazamacrocyclic ligand” (Bioorg Med Chem Lett, 1999):
# Columns and labels:
# Assay type in all cases: functional, cell-based
# BEL-7404 tumor cell line [1] = experiment: In vitro antitumor activity against BEL-7404 tumor cell lines at 10e-5 mol/L conentation; conditions: Homo sapiens
# BEL-7404 tumor cell line [2] = experiment: In vitro antitumor activity against BEL-7404 tumor cell lines at 10e-6 mol/L conentation; conditions: Homo sapiens
# P388 [3] = experiment: In vitro antitumor activity against P388 tumor cell lines at 10e-5 mol/L conentation; conditions: Mus musculus
# P388 [4] = experiment: In vitro antitumor activity against P388 tumor cell lines at 10e-4 mol/L conentation; conditions: Mus musculus
# BEL-7404 tumor cell line [5] = experiment: In vitro antitumor activity against BEL-7404 tumor cell lines at 10e-7 mol/L conentation; conditions: Homo sapiens
# BEL-7404 tumor cell line [6] = experiment: In vitro antitumor activity against BEL-7404 tumor cell lines at 10e-4 mol/L conentation; conditions: Homo sapiens
# BEL-7404 tumor cell line [7] = experiment: In vitro antitumor activity against BEL-7404 tumor cell lines at 10e-8 mol/L conentation; conditions: Homo sapiens
substance,measurement,setting,value
"Copper complex with 1,4,7,10-tetrakis(2-cyanolethyl-)-l,4,7,10-tetraazacyclododecane",inhibition,BEL-7404 tumor cell line [1],75.6%
same,inhibition,BEL-7404 tumor cell line [2],78%
same,inhibition,P388 [3],96.4%
same,inhibition,P388 [4],100%
same,inhibition,BEL-7404 tumor cell line [5],5.6%
same,inhibition,BEL-7404 tumor cell line [6],63.3%
same,inhibition,BEL-7404 tumor cell line [7],10%
